Patent publication US11241428B2, “Heteroaryl amide derivatives as selective inhibitors of histone deacetylases 1 and/or 2(HDAC1-2)” (Medibiofarma, S.L., priority 2017, dated 2022)

Experiments:
[1] = molecular target: HDAC2 (Homo sapiens (Human), UniProt Q92769); assay: biochemical HDAC assay (Reaction Biology Corp.), HDAC2; settings: fluorogenic peptide RHKK(Ac)AMC; 10-dose, 3-fold dilution from 10 μM
Method: (§1) The inhibitory activities of compounds of present invention were determined using biochemical HDAC assays (Reaction Biology Corp. biochemical assay services). Compound with indicated doses was tested in the biochemical assays of HDAC 1, HDAC2, HDAC3, HDAC4, HDAC5, HDAC6, HDAC7, HDAC 8, HDAC9, HDAC10, and HDAC11 enzyme.
(§2) Compounds were tested in singlicate 10-dose IC50 mode with 3-fold serial dilution starting at 10 μM against 11 HDACs. HDAC reference compounds Trichostatin A (TSA) and TMP269 were tested in a 10-dose IC50 with 3-fold serial dilution starting at 10 μM.
(§3) Substrate for HDAC1,2,3,6,10: Fluorogenic peptide from p53 residues 379-382 (RHKK(Ac)AMC). Substrate for HDAC4,5,7,9, and 11: Fluorogenic HDAC Class2a Substrate (Trifluoroacetyl Lysine). Substrate for HDAC 8: Fluorogenic peptide from p53 residues 379-382 (RHK(Ac)K(Ac)AMC).
(§4) General Reaction Procedure: (Standard IC50 determination) • a. 2× enzyme was added to wells of reaction plate except to No Enzyme (No En) control wells. Add buffer in No En wells. • b. Compounds to be tested in 100% DMSO were added to the enzyme mixture by Acoustic technology (Echo550; nanoliter range). The mixture was spinned down and preincubated. • c. 2× Substrate Mixture (Fluorogenic HDAC Substrate and co-factor (500 μM of Nicotinamide adenine dinucleotide (NAD<+>) in all Sirt assay) were added to all reaction wells to initiate the reaction. The plates were spinned and shaken. • d. The plates were incubated for 1-2 hr. at 30° C. with seal. • e. Developer with Trichostatin A (or TMP269 or NAD<+>) was added to stop the reaction and to generate fluorescent color. • f. Fluorescence was read (excitatory, 360; emission, 460) using the EnVision Multilabel Plate Reader (Perkin Elmer) • g. Endpoint reading was taken for analysis after the development reaches plateau.
(§5) Data Analysis: The percentages of enzyme activity (relative to DMSO controls) and IC50 values were calculated using the GraphPad Prism 4 program based on a sigmoidal dose-response equation. The blank (DMSO) value was entered as 1.00E-12 of concentration for curve fitting.

[2] = molecular target: HDAC3 (Homo sapiens (Human), UniProt O15379); assay: biochemical HDAC assay (Reaction Biology Corp.), HDAC3; settings: fluorogenic peptide RHKK(Ac)AMC; 10-dose, 3-fold dilution from 10 μM
Sequence of HDAC3 (O15379 whole entry): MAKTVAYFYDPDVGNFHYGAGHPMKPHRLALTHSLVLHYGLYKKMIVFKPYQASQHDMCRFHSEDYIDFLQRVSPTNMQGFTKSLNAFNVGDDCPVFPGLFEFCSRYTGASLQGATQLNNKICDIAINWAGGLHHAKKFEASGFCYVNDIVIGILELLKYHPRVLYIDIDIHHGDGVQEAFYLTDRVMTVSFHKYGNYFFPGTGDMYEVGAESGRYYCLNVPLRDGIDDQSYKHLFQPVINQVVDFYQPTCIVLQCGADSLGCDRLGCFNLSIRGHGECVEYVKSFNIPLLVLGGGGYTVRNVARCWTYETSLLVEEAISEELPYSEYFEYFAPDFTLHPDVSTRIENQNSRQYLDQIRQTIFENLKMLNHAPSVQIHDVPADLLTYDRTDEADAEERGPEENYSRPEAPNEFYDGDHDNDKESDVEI
Sequence of HDAC3 (Q9Y618 395-489 partner): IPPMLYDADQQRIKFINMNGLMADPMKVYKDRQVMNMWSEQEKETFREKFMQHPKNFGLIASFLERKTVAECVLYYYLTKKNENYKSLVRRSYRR
Method: as §1, §2, §3, §4, §5

[3] = molecular target: HDAC 1 (Homo sapiens (Human), UniProt Q13547); assay: biochemical HDAC assay (Reaction Biology Corp.), HDAC1; settings: fluorogenic peptide RHKK(Ac)AMC; 10-dose, 3-fold dilution from 10 μM
Sequence of HDAC 1 (Q13547 whole entry, the tested form may be a part): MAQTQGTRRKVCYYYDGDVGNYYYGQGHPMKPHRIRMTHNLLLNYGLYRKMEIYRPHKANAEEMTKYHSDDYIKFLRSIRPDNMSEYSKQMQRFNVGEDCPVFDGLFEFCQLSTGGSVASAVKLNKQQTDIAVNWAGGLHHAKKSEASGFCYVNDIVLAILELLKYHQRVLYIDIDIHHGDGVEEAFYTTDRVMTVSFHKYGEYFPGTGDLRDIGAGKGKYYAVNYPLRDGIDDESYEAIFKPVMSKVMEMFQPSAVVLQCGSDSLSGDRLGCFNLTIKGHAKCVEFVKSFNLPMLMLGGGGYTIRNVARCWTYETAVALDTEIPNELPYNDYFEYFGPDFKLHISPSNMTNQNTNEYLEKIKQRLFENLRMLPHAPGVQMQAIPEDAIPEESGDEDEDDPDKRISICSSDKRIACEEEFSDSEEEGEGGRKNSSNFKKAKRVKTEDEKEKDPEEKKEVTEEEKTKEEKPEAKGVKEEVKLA
Method: The inhibitory activities of compounds of present invention were determined using biochemical HDAC assays (Reaction Biology Corp. biochemical assay services). Compound with indicated doses was tested in the biochemical assays of HDAC 1, HDAC2, HDAC3, HDAC4, HDAC5, HDAC6, HDAC7, HDAC 8, HDAC9, HDAC10, and HDAC11 enzyme. Compounds were tested in singlicate 10-dose IC50 mode with 3-fold serial dilution starting at 10 μM against 11 HDACs. HDAC reference compounds Trichostatin A (TSA) and TMP269 were tested in a 10-dose IC50 with 3-fold serial dilution starting at 10 μM. Substrate for HDAC1,2,3,6,10: Fluorogenic peptide from p53 residues 379-382 (RHKK(Ac)AMC). Substrate for HDAC4,5,7,9, and 11: Fluorogenic HDAC Class2a Substrate (Trifluoroacetyl Lysine). Substrate for HDAC 8: Fluorogenic peptide from p53 residues 379-382 (RHK(Ac)K(Ac)AMC). General Reaction Procedure: (Standard IC50 determination) • a. 2× enzyme was added to wells of reaction plate except to No Enzyme (No En) control wells. Add buffer in No En wells. • b. Compounds to be tested in 100% DMSO were added to the enzyme mixture by Acoustic technology (Echo550; nanoliter range). The mixture was spinned down and preincubated. • c. 2× Substrate Mixture (Fluorogenic HDAC Substrate and co-factor (500 μM of Nicotinamide adenine dinucleotide (NAD<+>) in all Sirt assay) were added to all reaction wells to initiate the reaction. The plates were spinned and shaken. • d. The plates were incubated for 1-2 hr. at 30° C. with seal. • e. Developer with Trichostatin A (or TMP269 or NAD<+>) was added to stop the reaction and to generate fluorescent color. • f. Fluorescence was read (excitatory, 360; emission, 460) using the EnVision Multilabel Plate Reader (Perkin Elmer) • g. Endpoint reading was taken for analysis after the development reaches plateau. Data Analysis: The percentages of enzyme activity (relative to DMSO controls) and IC50 values were calculated using the GraphPad Prism 4 program based on a sigmoidal dose-response equation. The blank (DMSO) value was entered as 1.00E-12 of concentration for curve fitting.

[4] = molecular target: HDAC10 (Homo sapiens (Human), UniProt Q969S8); assay: biochemical HDAC assay (Reaction Biology Corp.), HDAC10; settings: fluorogenic peptide RHKK(Ac)AMC; 10-dose, 3-fold dilution from 10 μM
Sequence of HDAC10 (Q969S8 whole entry): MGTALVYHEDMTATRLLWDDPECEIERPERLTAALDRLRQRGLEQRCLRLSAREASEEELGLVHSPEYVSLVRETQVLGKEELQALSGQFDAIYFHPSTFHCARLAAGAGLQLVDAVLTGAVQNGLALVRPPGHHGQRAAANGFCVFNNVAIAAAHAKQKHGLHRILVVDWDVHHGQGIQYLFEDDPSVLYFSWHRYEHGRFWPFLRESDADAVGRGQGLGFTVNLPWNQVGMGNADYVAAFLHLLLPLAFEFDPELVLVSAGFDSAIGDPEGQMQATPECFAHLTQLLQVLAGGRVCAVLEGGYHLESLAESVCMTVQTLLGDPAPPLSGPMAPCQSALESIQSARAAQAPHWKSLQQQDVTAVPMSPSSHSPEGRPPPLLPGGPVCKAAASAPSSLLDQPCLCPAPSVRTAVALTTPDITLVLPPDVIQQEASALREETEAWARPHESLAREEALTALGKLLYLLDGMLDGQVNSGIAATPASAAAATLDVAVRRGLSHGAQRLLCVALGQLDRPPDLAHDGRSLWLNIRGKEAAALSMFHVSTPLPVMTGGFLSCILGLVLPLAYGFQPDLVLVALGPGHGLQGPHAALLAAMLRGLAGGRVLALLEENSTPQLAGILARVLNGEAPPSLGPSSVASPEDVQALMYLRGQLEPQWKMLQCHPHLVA
Method: as §1, §2, §3, §4, §5

[5] = molecular target: HDAC8 (Homo sapiens (Human), UniProt Q9BY41); assay: biochemical HDAC assay (Reaction Biology Corp.), HDAC8; settings: fluorogenic peptide RHK(Ac)K(Ac)AMC; 10-dose, 3-fold dilution from 10 μM
Sequence of HDAC8 (Q9BY41 whole entry): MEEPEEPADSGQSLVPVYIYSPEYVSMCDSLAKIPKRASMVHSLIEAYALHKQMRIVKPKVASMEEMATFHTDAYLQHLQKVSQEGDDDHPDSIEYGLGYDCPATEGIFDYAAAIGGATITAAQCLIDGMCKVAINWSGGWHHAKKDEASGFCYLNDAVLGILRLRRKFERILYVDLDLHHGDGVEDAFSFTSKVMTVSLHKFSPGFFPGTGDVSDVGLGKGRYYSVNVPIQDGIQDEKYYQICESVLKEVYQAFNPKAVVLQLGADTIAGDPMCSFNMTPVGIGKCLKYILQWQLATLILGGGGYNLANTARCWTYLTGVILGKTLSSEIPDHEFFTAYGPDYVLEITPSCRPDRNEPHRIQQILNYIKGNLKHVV
Method: as §1, §2, §3, §4, §5

[6] = molecular target: HDAC6 (Homo sapiens (Human), UniProt Q9UBN7); assay: biochemical HDAC assay (Reaction Biology Corp.), HDAC6; settings: fluorogenic peptide RHKK(Ac)AMC; 10-dose, 3-fold dilution from 10 μM
Sequence of HDAC6 (Q9UBN7 whole entry): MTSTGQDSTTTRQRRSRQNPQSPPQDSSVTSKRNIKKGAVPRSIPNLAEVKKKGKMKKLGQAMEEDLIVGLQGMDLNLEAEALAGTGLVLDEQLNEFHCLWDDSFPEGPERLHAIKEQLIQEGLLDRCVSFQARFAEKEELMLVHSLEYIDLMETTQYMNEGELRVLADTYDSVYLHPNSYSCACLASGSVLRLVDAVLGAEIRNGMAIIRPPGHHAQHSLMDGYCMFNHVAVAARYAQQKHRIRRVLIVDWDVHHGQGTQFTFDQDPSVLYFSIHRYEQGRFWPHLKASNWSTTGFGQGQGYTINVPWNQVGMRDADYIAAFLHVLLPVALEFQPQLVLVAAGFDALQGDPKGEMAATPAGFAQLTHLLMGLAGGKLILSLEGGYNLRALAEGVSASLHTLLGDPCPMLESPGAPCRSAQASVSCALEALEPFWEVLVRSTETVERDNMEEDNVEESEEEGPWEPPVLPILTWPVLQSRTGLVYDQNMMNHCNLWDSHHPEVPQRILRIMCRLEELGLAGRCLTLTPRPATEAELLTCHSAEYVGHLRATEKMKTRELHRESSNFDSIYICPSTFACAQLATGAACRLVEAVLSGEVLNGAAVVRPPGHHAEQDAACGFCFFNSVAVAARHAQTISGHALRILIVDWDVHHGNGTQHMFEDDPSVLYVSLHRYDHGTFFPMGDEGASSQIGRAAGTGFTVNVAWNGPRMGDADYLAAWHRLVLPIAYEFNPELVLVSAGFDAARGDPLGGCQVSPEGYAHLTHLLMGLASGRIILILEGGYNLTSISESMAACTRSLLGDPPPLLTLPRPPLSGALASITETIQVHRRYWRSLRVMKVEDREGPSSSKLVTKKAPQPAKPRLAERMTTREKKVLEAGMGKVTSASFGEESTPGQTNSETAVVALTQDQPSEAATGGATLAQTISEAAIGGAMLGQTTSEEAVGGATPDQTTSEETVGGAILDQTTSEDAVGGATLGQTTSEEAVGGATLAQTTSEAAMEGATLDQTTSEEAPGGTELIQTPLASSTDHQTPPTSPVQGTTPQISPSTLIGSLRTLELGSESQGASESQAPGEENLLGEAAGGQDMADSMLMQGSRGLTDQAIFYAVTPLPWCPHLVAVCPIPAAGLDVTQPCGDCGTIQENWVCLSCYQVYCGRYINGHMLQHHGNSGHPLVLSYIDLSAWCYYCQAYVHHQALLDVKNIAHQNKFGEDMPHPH
Method: as §1, §2, §3, §4, §5

Sequence of HDAC2 (Q92769 whole entry): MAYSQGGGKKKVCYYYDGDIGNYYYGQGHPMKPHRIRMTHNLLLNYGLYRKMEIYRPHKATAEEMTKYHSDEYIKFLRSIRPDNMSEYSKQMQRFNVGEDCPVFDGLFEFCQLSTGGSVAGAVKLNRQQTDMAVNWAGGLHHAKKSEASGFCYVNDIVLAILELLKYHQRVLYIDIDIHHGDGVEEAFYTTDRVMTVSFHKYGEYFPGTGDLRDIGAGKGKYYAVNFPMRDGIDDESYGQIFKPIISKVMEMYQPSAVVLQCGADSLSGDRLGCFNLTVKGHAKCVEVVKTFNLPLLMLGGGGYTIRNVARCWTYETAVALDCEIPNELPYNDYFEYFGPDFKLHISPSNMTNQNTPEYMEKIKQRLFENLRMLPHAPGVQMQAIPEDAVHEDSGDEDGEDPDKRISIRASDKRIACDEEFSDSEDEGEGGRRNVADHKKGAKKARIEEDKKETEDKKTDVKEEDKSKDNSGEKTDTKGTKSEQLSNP

IC50 [1] [nM]	IC50 [2] [nM]	IC50 [3] [nM]	IC50 [4] [nM]	IC50 [5] [nM]	IC50 [6] [nM]	Compound
< 200	–	–	–	–	–	CN1CCN(c2ccc(C(=O)Nc3nc(-c4ccccc4)ccc3N)cn2)CC1 [Example 1, N-(3-amino-6-phenylpyridin-2-yl)-6-(4-methylpiperazin-1-yl)nicotinamide]
< 200	–	–	–	–	–	Nc1ccc(-c2ccccc2)nc1NC(=O)c1cccnc1 [Example 2, N-(3-amino-6-phenylpyridin-2-yl)nicotinamide]
< 200	–	–	–	–	–	Nc1ccc(-c2ccc(F)cc2)nc1NC(=O)c1cccnc1 [Example 3, N-(3-amino-6-(4-fluorophenyl)pyridin-2-yl)nicotinamide]
< 200	–	–	–	–	–	Nc1ccc(-c2ccccc2)nc1NC(=O)c1ccc(N2CCOCC2)nc1 [Example 4, N-(3-amino-6-phenylpyridin-2-yl)-6-morpholinonicotinamide]
< 200	≥ 50000	< 200	1000 to 50000	≥ 50000	–	Nc1ccc(-c2ccc(F)cc2)nc1NC(=O)c1ccc(N2CCOCC2)nc1 [Example 5, N-(3-amino-6-(4-fluorophenyl)pyridin-2-yl)-6-morpholinonicotinamide]
< 200	≥ 50000	< 200	1000 to 50000	≥ 50000	≥ 50000	CN1CCN(c2ccc(C(=O)Nc3nc(-c4ccc(F)cc4)ccc3N)cn2)CC1 [Example 6, N-(3-amino-6-(4-fluorophenyl)pyridin-2-yl)-6-(4-methylpiperazin-1-yl)nicotinamide]
200 to 1000	–	–	–	–	–	COc1ccc(-c2ccc(N)c(NC(=O)c3ccc(N4CCN(C)CC4)nc3)n2)cc1 [Example 7, N-(3-amino-6-(4-methoxyphenyl)pyridin-2-yl)-6-(4-methylpiperazin-1-yl)nicotinamide]
200 to 1000	–	–	–	–	–	CN1CCN(c2ccc(C(=O)Nc3nc(-c4ccncc4)ccc3N)cn2)CC1 [Example 8, N-(5-amino-[2,4′-bipyridin]-6-yl)-6-(4-methylpiperazin-1-yl)nicotinamide]
200 to 1000	–	–	–	–	–	CN1CCN(c2ccc(C(=O)Nc3nc(-c4ccc(F)c(F)c4)ccc3N)cn2)CC1 [Example 9, N-(3-amino-6-(3,4-difluorophenyl)pyridin-2-yl)-6-(4-methylpiperazin-1-yl)nicotinamide]
< 200	–	–	–	–	–	CN1CCN(c2ncc(C(=O)Nc3nc(-c4ccccc4)ccc3N)cn2)CC1 [Example 10, N-(3-amino-6-phenylpyridin-2-yl)-2-(4-methylpiperazin-1-yl)pyrimidine-5-carboxamide]
< 200	–	–	–	–	–	Nc1ccc(-c2ccc(F)cc2)nc1NC(=O)c1cnc(N2CCOCC2)nc1 [Example 14, N-(3-amino-6-(4-fluorophenyl)pyridin-2-yl)-2-morpholinopyrimidine-5-carboxamide]
< 200	–	–	–	–	–	CN1CCN(c2ncc(C(=O)Nc3nc(-c4ccc(F)cc4)ccc3N)cn2)CC1 [Example 15, N-(3-amino-6-(4-fluorophenyl)pyridin-2-yl)-2-(4-methylpiperazin-1-yl)pyrimidine-5-carboxamide]
< 200	–	–	–	–	–	Nc1ccc(-c2ccccc2)nc1NC(=O)c1cnc(NC2CC2)nc1 [Example 16, N-(3-amino-6-phenylpyridin-2-yl)-2-(cyclopropylamino)pyrimidine-5-carboxamide]
< 200	≥ 50000	1000 to 50000	≥ 50000	–	–	Nc1ccc(-c2ccc(F)cc2)nc1NC(=O)c1cnc(NC2CC2)nc1 [Example 17, N-(3-amino-6-(4-fluorophenyl)pyridin-2-yl)-2-(cyclopropylamino)pyrimidine-5-carboxamide]
200 to 1000	–	–	–	–	–	Nc1ccc(-c2ccc(F)cc2)nc1NC(=O)c1ccc(-c2cccnc2)nc1 [Example 21, N-(3-amino-6-(4-fluorophenyl)pyridin-2-yl)-[2,3′-bipyridine]-5-carboxamide]
200 to 1000	–	–	–	–	–	N#Cc1cccc(-c2ccc(C(=O)Nc3nc(-c4ccc(F)cc4)ccc3N)cn2)c1 [Example 22, N-(3-amino-6-(4-fluorophenyl)pyridin-2-yl)-6-(3-cyanophenyl)nicotinamide]
< 200	≥ 50000	200 to 1000	1000 to 50000	≥ 50000	1000 to 50000	Nc1ccc(-c2ccc(F)cc2)nc1NC(=O)c1ccc(N2CCNCC2)nc1 [Example 25, N-(3-amino-6-(4-fluorophenyl)pyridin-2-yl)-6-(piperazin-1-yl)nicotinamide]
< 200	≥ 50000	< 200	1000 to 50000	–	1000 to 50000	Nc1ccc(-c2ccc(F)cc2)nc1NC(=O)c1ccc(N2CCC(N)CC2)nc1 [Example 27, N-(3-amino-6-(4-fluorophenyl)pyridin-2-yl)-6-(4-aminopiperidin-1-yl)nicotinamide]
< 200	1000 to 50000	< 200	1000 to 50000	–	1000 to 50000	CN1CCN(c2ccc(C(=O)Nc3nc(-c4cccs4)ccc3N)cn2)CC1 [Example 29, N-(3-amino-6-(thiophen-2-yl)pyridin-2-yl)-6-(4-methylpiperazin-1-yl)nicotinamide]
< 200	–	–	–	–	–	CN1CCN(CCNc2ccc(C(=O)Nc3nc(-c4ccc(F)cc4)ccc3N)cn2)CC1 [Example 30, N-(3-amino-6-(4-fluorophenyl)pyridin-2-yl)-6-((2-(4-methylpiperazin-1-yl)ethyl)amino)nicotinamide]
< 200	–	–	–	–	–	N-(3-amino-6-(4-fluorophenyl)pyridin-2-yl)-6-(4-methylpiperazin-1-yl)nicotinamide [Example 13]
